In patent US20240425456A1, “DEGRADER” (ASKA PHARMACEUTICAL CO., LTD., priority 2021, published 2024):

How the values were obtained:
Assay type in all cases: cell-based
Tyk2 = biological target: T1, Tyk2 (Homo sapiens, UniProt P29597); experiment: Degradation-inducing effect on JAK in Jurkat cells (chemiluminescent Western blotting), Tyk2; conditions: 1 μmol/L, 6 hours; for JAK protein ratio of Jurkat cells after treatment of each test compound: Tyk2: corrected by GAPDH, DMSO as 100%
T1 construct: endogenous in cells; host or cells: Jurkat cells
Experimental: (§1) The degradation-inducing effect of the compound of the present invention on JAK family proteins was evaluated in vitro using Jurkat cells, of which cell line was derived from human leukemic T cells.
(§2) JAK1, JAK2, JAK3, and Tyk2-positive Jurkat cells were seeded at a density of 1×10^5 cells/mL on 10 cm diameter dishes and then cultured in RPMI 1640 medium (FUJIFILM Wako Pure Chemical: catalog number: 189-02025) containing 10% FBS (Thermo Fisher Scientific: catalog number: 10437-028) at 5% CO2 and 37° C. for 3 days. Then, each of the test compounds (compounds of Examples 1 to 11 and Comparative Examples 1 and 2) was added to the dish at a final concentration of 1 μmol/L, and the cells were cultured in the presence of the test compound for 6 hours. After that, the cell culture medium was collected in a 15 mL centrifuge tube (1000 rpm (240× g), room temperature, 5 min), followed by washing with PBS (1000 rpm (240× g), room temperature, 5 min). Then, the cells in the centrifuge tube were collected in a 1.5 mL tube (3000 rpm (860× g), 4° C., 5 min), lysed using RIPA buffer (25 mmol/L Tris-HCl (pH 7.4), 25 mmol/L NaCl, 0.5 mmol/L EGTA (pH 8.0), 0.1% SDS, 1% protease inhibitor), sonicated at ice temperature (cycles of [7.5 sec sonication, 5 sec off] for 5 min) and subjected to centrifugation (15000 rpm (21600× g), 4° C., 30 min). The thus-obtained supernatant was used as the protein solution. Using the BCA protein assay kit (Thermo Fisher Scientific: catalog number: 23225), the protein concentration of the protein solution of each test compound was measured according to the kit instructions, and then adjusted to 1.4 mg/mL with RIPA buffer. The thus-adjusted protein solutions were subjected to a fully automated Western blotting device (Simple Westerns Wes: proteinSimple) to detect the protein levels (JAK1, JAK2, JAK3, and Tyk2 as the target proteins, and GAPDH (Glyceraldehyde 3-phosphate dehydrogenase) as the internal standard protein) in the protein solutions by chemiluminescent Western blotting.
(§3) Furthermore, the luminescence levels of JAK1, JAK2, JAK3, and Tyk2 detected by chemiluminescent Western blotting were quantified numerically by using an analysis software (Compass software for Simple Western (version 4.0.0)) attached to the fully automated Western blotting device. The numerical values of the quantified luminescence levels were corrected by the protein levels of the internal standard protein, i.e., GAPDH, (target protein levels/GAPDH protein levels), and compared among the test compounds with dimethyl sulfoxide (DMSO) as 100%.

JAK1 = biological target: T2, JAK1 (Homo sapiens, UniProt P23458); experiment: Degradation-inducing effect on JAK in Jurkat cells (chemiluminescent Western blotting), JAK1; conditions: 1 μmol/L, 6 hours; for JAK protein ratio of Jurkat cells after treatment of each test compound: JAK1: corrected by GAPDH, DMSO as 100%
T2 construct: endogenous in cells; host or cells: Jurkat cells
Experimental: as §1, §2, §3

JAK3 = biological target: T3, JAK3 (Homo sapiens, UniProt P52333); experiment: Degradation-inducing effect on JAK in Jurkat cells (chemiluminescent Western blotting), JAK3; conditions: 1 μmol/L, 6 hours, corrected by GAPDH, DMSO as 100%, read-out: JAK protein ratio of Jurkat cells after treatment of each test compound: JAK3
T3 construct: endogenous in cells; host or cells: Jurkat cells
T3 sequence (P52333 1-1124): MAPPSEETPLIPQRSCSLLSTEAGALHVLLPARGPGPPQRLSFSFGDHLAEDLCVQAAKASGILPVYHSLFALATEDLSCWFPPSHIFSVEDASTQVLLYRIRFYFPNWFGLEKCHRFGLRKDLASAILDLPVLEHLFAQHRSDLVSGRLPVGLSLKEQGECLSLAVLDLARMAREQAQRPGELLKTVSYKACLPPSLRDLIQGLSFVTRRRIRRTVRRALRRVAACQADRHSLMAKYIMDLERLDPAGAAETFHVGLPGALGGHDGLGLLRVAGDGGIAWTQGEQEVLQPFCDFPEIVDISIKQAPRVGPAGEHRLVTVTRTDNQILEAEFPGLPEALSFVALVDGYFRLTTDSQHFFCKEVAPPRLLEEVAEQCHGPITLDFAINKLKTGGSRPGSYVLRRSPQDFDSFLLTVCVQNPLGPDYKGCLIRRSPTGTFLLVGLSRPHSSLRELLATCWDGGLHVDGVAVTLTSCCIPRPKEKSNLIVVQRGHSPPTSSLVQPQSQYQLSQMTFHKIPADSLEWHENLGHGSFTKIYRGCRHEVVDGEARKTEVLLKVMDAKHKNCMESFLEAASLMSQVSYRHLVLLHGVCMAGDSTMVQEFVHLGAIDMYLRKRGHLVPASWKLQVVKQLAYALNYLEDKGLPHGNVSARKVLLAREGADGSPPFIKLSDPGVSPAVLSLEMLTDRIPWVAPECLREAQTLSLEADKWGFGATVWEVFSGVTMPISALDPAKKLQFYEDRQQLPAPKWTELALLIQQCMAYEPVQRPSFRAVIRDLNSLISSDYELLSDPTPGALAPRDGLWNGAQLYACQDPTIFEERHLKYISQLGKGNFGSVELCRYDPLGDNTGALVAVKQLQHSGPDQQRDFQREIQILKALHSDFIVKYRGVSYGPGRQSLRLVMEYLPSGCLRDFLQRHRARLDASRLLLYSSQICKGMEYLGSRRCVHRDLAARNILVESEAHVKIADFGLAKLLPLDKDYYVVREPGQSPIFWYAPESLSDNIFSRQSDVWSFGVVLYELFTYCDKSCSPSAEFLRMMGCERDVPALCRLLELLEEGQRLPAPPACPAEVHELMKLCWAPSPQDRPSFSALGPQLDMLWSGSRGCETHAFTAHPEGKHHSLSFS
Experimental: as §1, §2, §3

JAK2 = biological target: T4, JAK2 (Homo sapiens, UniProt O60674); experiment: Degradation-inducing effect on JAK in Jurkat cells (chemiluminescent Western blotting), JAK2; conditions: 1 μmol/L, 6 hours, corrected by GAPDH, DMSO as 100%
T4 construct: endogenous in cells; host or cells: Jurkat cells
Experimental: as §1, §2, §3

T1 sequence (P29597 whole entry): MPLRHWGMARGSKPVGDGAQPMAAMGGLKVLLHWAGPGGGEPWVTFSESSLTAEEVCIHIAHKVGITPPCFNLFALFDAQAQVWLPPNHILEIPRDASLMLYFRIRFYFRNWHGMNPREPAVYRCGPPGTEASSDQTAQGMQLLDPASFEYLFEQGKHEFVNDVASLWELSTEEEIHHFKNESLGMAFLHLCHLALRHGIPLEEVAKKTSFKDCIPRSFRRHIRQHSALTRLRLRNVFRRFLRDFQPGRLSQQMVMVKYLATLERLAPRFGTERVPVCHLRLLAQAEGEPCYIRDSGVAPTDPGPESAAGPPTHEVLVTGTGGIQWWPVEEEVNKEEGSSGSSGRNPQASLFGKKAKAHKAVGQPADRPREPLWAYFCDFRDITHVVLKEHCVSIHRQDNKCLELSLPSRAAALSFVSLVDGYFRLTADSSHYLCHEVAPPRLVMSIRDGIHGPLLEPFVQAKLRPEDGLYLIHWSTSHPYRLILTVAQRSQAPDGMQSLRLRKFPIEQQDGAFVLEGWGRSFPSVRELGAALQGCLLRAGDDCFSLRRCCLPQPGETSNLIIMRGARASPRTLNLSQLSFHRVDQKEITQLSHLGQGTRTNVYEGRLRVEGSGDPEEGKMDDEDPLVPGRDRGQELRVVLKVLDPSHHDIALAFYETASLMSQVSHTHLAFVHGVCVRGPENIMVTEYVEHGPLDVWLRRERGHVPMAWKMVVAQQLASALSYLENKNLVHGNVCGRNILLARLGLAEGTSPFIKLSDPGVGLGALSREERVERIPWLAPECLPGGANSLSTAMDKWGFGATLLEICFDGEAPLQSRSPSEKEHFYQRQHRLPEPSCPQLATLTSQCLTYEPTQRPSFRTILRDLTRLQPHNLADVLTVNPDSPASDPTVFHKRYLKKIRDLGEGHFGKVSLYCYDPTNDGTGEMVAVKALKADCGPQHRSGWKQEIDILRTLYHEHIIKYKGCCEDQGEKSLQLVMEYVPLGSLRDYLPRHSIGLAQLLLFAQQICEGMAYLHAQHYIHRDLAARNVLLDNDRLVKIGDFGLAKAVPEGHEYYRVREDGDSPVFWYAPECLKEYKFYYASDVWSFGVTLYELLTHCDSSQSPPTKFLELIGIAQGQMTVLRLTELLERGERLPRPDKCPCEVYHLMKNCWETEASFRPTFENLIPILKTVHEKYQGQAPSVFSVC
T2 sequence (P23458 whole entry): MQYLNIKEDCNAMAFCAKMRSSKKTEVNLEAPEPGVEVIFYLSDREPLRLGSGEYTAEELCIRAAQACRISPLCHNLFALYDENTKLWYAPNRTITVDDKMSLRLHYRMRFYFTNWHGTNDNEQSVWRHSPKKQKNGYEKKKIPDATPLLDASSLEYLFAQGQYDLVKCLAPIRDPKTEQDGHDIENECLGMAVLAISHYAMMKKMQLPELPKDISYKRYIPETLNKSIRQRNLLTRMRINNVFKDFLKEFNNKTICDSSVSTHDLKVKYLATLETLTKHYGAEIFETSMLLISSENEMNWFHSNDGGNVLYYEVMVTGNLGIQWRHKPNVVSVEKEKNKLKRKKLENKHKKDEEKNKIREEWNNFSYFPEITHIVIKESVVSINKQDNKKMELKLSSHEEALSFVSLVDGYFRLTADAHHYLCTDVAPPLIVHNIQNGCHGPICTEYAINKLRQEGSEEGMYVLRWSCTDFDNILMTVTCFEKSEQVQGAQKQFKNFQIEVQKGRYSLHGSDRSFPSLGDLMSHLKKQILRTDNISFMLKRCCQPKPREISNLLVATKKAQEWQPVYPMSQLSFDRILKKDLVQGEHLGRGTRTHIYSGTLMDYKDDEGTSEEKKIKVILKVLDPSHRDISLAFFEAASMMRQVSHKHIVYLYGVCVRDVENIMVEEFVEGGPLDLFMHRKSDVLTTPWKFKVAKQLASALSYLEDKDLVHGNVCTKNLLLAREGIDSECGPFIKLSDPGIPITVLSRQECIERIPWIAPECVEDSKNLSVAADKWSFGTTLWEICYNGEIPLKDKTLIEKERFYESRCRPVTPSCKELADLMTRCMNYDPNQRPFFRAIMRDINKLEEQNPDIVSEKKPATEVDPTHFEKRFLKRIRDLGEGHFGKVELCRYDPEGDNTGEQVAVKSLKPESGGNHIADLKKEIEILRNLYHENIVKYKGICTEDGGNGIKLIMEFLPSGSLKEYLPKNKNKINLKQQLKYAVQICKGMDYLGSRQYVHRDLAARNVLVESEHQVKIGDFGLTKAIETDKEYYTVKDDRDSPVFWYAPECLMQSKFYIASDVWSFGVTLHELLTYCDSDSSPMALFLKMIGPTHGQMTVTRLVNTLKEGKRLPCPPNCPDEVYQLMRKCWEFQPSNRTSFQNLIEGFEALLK
T4 sequence (O60674 whole entry): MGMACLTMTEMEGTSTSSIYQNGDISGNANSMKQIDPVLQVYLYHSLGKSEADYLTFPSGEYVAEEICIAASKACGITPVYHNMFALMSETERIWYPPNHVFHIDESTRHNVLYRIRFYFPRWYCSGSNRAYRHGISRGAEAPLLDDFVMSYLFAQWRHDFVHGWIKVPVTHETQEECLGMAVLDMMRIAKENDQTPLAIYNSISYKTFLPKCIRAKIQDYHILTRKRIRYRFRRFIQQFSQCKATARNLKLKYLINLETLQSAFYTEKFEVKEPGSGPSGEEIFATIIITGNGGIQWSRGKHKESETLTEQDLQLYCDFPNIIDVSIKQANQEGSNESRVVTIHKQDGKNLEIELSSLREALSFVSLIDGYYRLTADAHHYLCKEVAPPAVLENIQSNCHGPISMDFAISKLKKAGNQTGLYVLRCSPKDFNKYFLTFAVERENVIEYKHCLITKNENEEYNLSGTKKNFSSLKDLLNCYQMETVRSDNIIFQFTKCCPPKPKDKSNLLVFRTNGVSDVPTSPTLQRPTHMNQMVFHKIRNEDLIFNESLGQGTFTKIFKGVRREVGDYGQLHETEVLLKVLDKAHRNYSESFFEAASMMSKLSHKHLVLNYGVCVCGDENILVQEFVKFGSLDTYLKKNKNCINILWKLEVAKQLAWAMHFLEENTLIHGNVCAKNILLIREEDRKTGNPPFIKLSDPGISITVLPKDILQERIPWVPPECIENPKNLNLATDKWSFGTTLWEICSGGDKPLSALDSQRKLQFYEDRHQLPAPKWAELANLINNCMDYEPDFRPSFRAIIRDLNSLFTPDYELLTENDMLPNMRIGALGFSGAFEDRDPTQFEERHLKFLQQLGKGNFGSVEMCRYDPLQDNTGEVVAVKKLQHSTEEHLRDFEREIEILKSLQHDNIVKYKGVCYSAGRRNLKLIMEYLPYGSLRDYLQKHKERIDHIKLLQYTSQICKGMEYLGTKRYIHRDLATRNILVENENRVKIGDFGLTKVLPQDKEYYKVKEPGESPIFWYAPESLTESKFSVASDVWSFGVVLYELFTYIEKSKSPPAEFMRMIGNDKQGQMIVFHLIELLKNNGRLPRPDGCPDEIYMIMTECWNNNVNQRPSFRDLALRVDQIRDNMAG

protein level of Tyk2 (in words) (Tyk2) | JAK protein ratio of Jurkat cells after treatment of each test compound: Tyk2 (Tyk2) | JAK protein ratio of Jurkat cells after treatment of each test compound: JAK1 (JAK1) | JAK3 protein level relative to DMSO at 1 µM (JAK3) | JAK protein ratio of Jurkat cells after treatment of each test compound: JAK2 (JAK2) | protein level of JAK1 (in words) (JAK1) | SMILES
 | 47.1% | 112.1% | 112% | 108.2% |  | CNC(=O)c1cnc(Nc2ccc(C(=O)NCCCCCCCCCCCC(=O)N[C@H](C(=O)N3C[C@H](O)C[C@H]3C(=O)NCc3ccc(-c4scnc4C)cc3)C(C)(C)C)cn2)cc1Nc1cccc(C(=O)NC)c1OC [Example 7, 6-((5-((12-(((S)-1-((2S,4R)-4-Hydroxy-2-((4-(4-methylthiazol-5-yl)benzyl)carbamoyl)pyrrolidin-1-yl)-3,3-dimethyl-1-oxobutan-2-yl)amino)-12-oxododecyl)carbamoyl)pyridin-2-yl)amino)-4-((2-methoxy-3-(methylcarbamoyl)phenyl)amino)-N-methylnicotinamide]
 | 15.4% | 57.6% | 99.3% | 115.9% | reduced | CNC(=O)c1cccc(Nc2cc(Nc3ccc(C(=O)NCCCCCCCCCC(=O)N[C@H](C(=O)N4C[C@H](O)C[C@H]4C(=O)NCc4ccc(-c5scnc5C)cc4)C(C)(C)C)cn3)ncc2C(N)=O)c1OC [Example 9, 6-((5-Carbamoyl-4-((2-methoxy-3-(methylcarbamoyl)phenyl)amino)pyridin-2-yl)amino)-N-(10-(((S)-1-((2S,4R)-4-hydroxy-2-((4-(4-methylthiazol-5-yl)benzyl)carbamoyl)pyrrolidin-1-yl)-3,3-dimethyl-1-oxobutan-2-yl)amino)-10-oxodecyl) nicotinamide]
not reduced | 97.0% | 102.6% | 99% | 122.5% |  | CNC(=O)c1cnc(Nc2ccc(C(=O)NCCCCCCCCCC(=O)N[C@H](C(=O)N3C[C@@H](O)C[C@H]3C(=O)NCc3ccc(-c4scnc4C)cc3)C(C)(C)C)cn2)cc1Nc1cccc(C(=O)NC)c1OC [Example 8, 6-((5-((10-(((S)-1-((2S,4S)-4-Hydroxy-2-((4-(4-methylthiazol-5-yl)benzyl)carbamoyl)pyrrolidin-1-yl)-3,3-dimethyl-1-oxobutan-2-yl)amino)-10-oxodecyl)carbamoyl)pyridin-2-yl)amino)-4-((2-methoxy-3-(methylcarbamoyl)phenyl)amino)-N-methylnicotinamide]
 | 30.3% | 113.2% | 122% | 139.8% |  | CNC(=O)c1cnc(Nc2ccc(C(=O)NCCCCCCCCCCC(=O)N[C@H](C(=O)N3C[C@H](O)C[C@H]3C(=O)NCc3ccc(-c4scnc4C)cc3)C(C)(C)C)cn2)cc1Nc1cccc(C(=O)NC)c1OC [Example 6, 6-((5-((11-(((S)-1-((2S,4R)-4-Hydroxy-2-((4-(4-methylthiazol-5-yl)benzyl)carbamoyl)pyrrolidin-1-yl)-3,3-dimethyl-1-oxobutan-2-yl)amino)-11-oxoundecyl)carbamoyl)pyridin-2-yl)amino)-4-((2-methoxy-3-(methylcarbamoyl)phenyl)amino)-N-methylnicotinamide]

More lines, now with the values behind:

SMILES | protein level of Tyk2 (in words) (Tyk2) | JAK protein ratio of Jurkat cells after treatment of each test compound: Tyk2 (Tyk2) | JAK protein ratio of Jurkat cells after treatment of each test compound: JAK1 (JAK1) | JAK3 protein level relative to DMSO at 1 µM (JAK3) | JAK protein ratio of Jurkat cells after treatment of each test compound: JAK2 (JAK2) | protein level of JAK1 (in words) (JAK1)
CNC(=O)c1cnc(Nc2ccc(F)cn2)cc1Nc1cccc(C(=O)OCCCCCCCCCC(=O)N[C@H](C(=O)N2C[C@H](O)C[C@H]2C(=O)NCc2ccc(-c3scnc3C)cc2)C(C)(C)C)c1OC [Comparative Example 2, 10-(((S)-1-((2S,4R)-4-Hydroxy 2-((4-(4-methylthiazol-5-yl)benzyl)carbamoyl)pyrrolidin-1-yl)-3,3-dimethyl-1-oxobutan-2-yl)amino)-10-oxodecyl 3-((2-((5-fluoropyridin-2-yl)amino)-5-(methylcarbamoyl)pyridin-4-yl)amino)-2-methoxybenzoate, reference compound] | not reduced | 100.1% | 108.7% | 89.8% | 101.7% | 
CNC(=O)c1cnc(Nc2ccc(C(=O)NCCCCCCCCCC(=O)N[C@H](C(=O)N3C[C@H](O)C[C@H]3C(=O)NCc3ccc(-c4scnc4C)cc3)C(C)(C)C)cn2)cc1Nc1cccc(C(=O)NC)c1OC [Example 5, 6-((5-((10-(((S)-1-((2S,4R)-4-Hydroxy-2-((4-(4-methylthiazol-5-yl)benzyl)carbamoyl)pyrrolidin-1-yl)-3,3-dimethyl-1-oxobutan-2-yl)amino)-10-oxodecyl)carbamoyl)pyridin-2-yl)amino)-4-((2-methoxy-3-(methylcarbamoyl)phenyl)amino)-N-methylnicotinamide] |  | 23.1% | 122.8% | 112% | 121.0% | 
CNC(=O)c1cnc(Nc2ccc(C(=O)NCCCC(=O)N[C@H](C(=O)N3C[C@H](O)C[C@H]3C(=O)NCc3ccc(-c4scnc4C)cc3)C(C)(C)C)cn2)cc1Nc1cccc(C(=O)NC)c1OC [Example 1] |  | 82.8% | 111.9% | 114% | 121.3% | 
CNC(=O)c1cnc(Nc2ccc(C(=O)NCCCCCCCC(=O)N[C@H](C(=O)N3C[C@H](O)C[C@H]3C(=O)NCc3ccc(-c4scnc4C)cc3)C(C)(C)C)cn2)cc1Nc1cccc(C(=O)NC)c1OC [Example 3, 6-((5-((8-(((S)-1-((2S,4R)-4-Hydroxy-2-((4-(4-methylthiazol-5-yl)benzyl)carbamoyl)pyrrolidin-1-yl)-3,3-dimethyl-1-oxobutan-2-yl)amino)-8-oxooctyl)carbamoyl)pyridin-2-yl)amino)-4-((2-methoxy-3-(methylcarbamoyl)phenyl)amino)-N-methylnicotinamide] |  | 51.6% | 118.2% | 97.5% | 117.6% | 
